Values joined by “and” are separate entries in the source; they are usually repeats but may differ in a detail not shown here. Equal values may be shown once. Active and inactive are the calls of the source.
Legend:
[1] = Late stage assay provider results from the probe development effort to identify inhibitors of the Plasmodium falciparum M18 Aspartyl Aminopeptidase (M18AAP): radiolabel-based cell-based dose response assay to identify compounds that inhibit P. falciparum growth in RBCs, Set 2..; assay type: functional
[2] = inhibitors of PGC1a acetylation in cells, dose response, cell-based, cherry-picked samples (AID 720514); assay type: functional;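 also: potency may reflect raised or lowered acetylation signal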
[3] = cytotoxicity in HEK293 cells, dose response, cytotoxicity control, cell-based, cherry-picked samples (AID 1053185); assay type: functional
[4] = cytotoxicity in HepG2 cells, dose response, cytotoxicity control, cell-based, cherry-picked samples (AID 1053183); assay type: functional
[5] = target: NAD-dependent protein deacylase sirtuin-5, mitochondrial (Homo sapiens, UniProt Q9NXA8); assay: SIRT5 desuccinylase inhibitors, dose response, biochemical, fluorescence imaging, cherry-pick, set 5 (AID 720591);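 also: desuccinylation of succinyl peptide AMC substrate read as fluorescence after trypsin release; potency of inhibitors that lower fluorescence and may act on trypsin instead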
Protein skinhead-1 = target: T1, Protein skinhead-1 (Caenorhabditis elegans, UniProt P34707); assay type: functional
T1 sequence (P34707 whole entry): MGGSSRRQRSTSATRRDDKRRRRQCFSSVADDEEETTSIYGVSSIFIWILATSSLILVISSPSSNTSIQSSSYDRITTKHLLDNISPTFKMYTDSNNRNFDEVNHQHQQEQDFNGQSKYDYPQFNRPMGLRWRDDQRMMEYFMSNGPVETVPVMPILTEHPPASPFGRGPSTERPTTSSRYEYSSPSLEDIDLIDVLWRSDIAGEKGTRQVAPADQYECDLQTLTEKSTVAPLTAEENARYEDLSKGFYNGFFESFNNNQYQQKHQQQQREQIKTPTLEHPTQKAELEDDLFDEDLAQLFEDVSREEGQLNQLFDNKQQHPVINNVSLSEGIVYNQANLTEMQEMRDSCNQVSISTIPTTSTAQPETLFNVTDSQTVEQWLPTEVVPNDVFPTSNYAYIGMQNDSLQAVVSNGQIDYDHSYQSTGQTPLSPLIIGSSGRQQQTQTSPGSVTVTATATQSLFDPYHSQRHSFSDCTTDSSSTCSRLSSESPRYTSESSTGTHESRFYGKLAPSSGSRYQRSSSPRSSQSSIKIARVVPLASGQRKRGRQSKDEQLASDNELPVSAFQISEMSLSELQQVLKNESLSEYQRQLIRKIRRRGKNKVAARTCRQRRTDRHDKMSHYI

A549 = assay: A549 cell toxicity, dose response, cytotoxicity control, plate reader, cherry-pick samples (AID 687028); assay type: functional, cell-based; conditions: Homo sapiens
Kallikrein-7 = Kallikrein-7 (Homo sapiens, UniProt P49862); assay: Fluorescence Intensity-based biochemical primary high throughput dose response assay to identify activators of kallikrein-7 (K7) zymogen.
[6] = Counterscreen for […] of the human trace amine associated receptor 1 (TAAR1): Fluorescence-based cell-based high throughput dose response assay to identify nonselective Ga16 agonists.; assay type: functional
[7] = Counterscreen for antagonists of the human trace amine associated receptor 1 (hTAAR1): Fluorescence-based cell-based high throughput dose response assay to identify nonselective Ga16 antagonists.; assay type: functional
[8] = human group III sPLA2 inhibitors, dose response, biochemical, QFRET, IC50 (AID 743457);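 also: green fluorescence rise as the enzyme cleaves BODIPY PC-A2 in liposomes; potency for inhibition of the enzyme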
[9] = tested on: Streptococcus sp. 'group A'; assay: growth inhibition of control SK(-) GAS strain, dose response, counter-screen for streptokinase expression inhibitor project, luminescence, kanamycin, BacTiterGlo, confirmation (AID 1900); assay type: functional, organism-based
Streptococcus = assay: Group A Streptococcus viability loss, dose response, counter-screen for streptokinase expression inhibitor project, luminescence, BacTiterGlo (AID 1915); assay type: functional, organism-based;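 also: potency for reduction of bacterial viability or growth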
[10] = HIV Env cell-cell fusion inhibitors, dose response, HIV entry, plate reader, dry powder (AID 687023); assay type: functional, cell-based
[11] = luciferase signal loss, tTA control fusion, HeLa F-luc tTA cells, dry powder, counter-screen for HIV Env fusion inhibitor project, dose response (AID 687021); assay type: functional, cell-based
[12] = CEM21 cell cytotoxicity, dose response, cytotoxicity control, plate reader, dry powder (AID 687026); assay type: functional, cell-based
[13] = target: T2, Beta-2 adrenergic receptor (Homo sapiens, UniProt P07550); assay: beta2AR agonists driving receptor internalization, dose response, cell-based, FAP fluorogen, flow cytometry, cherry pick 1 (AID 588763); assay type: functional
[14] = target: T2, Beta-2 adrenergic receptor; assay: Dose response for HTS for Beta-2AR agonists via FAP method from Powderset1.; assay type: functional
[15] = inhibitors of firefly luciferase expression or activity, dose response, H4 neuroglioma cells, luminescence (AID 1990); assay type: functional, cell-based
[16] = Luminescence Cell-Based Dose Response HTS to Identify Inhibitors of 5'UTR Stem-Loop Driven Prion Protein mRNA Translation in H4 Neuroglioblastoma Cells. [Related pubchem assays: 1827 (Project Summary), 1813 (Primary HTS)]; assay type: functional
[17] = miR-122 activators in hepatoma reporter cells, dose response, cell-based, Huh7 psiCHECK-miR122, Renilla luciferase, cherry-picked (AID 651956); assay type: functional;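 also: huh7 hepatoma cells stably carrying a psiCHECK-2 miR-122 sensor plasmid; renilla luciferase signal reporting endogenous miR-122 activity after 48 h compound exposure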
[18] = HEK293T cytotoxicity, dose response, cytotoxicity control for miR-122 modulator project, cell-based, inhibitor set, cherry-pick, set 2 (AID 720697); assay type: functional
[19] = inhibitors of SNCA 5'UTR-driven reporter translation, confirmation, H4 neuroglioma cells, luminescence (AID 1988); assay type: functional, cell-based
[20] = target: ADP-ribosylation factor GTPase-activating protein 1 (Rattus norvegicus, UniProt Q62848); assay: Fluorescence polarization-based biochemical high throughput dose response screening assay to identify inhibitors of ADP-ribosylation factor GTPase activating protein 1 (ARFGAP1).; assay type: functional
ADP-ribosylation factor GTPase-activating protein 1, sequence (Q62848 whole entry): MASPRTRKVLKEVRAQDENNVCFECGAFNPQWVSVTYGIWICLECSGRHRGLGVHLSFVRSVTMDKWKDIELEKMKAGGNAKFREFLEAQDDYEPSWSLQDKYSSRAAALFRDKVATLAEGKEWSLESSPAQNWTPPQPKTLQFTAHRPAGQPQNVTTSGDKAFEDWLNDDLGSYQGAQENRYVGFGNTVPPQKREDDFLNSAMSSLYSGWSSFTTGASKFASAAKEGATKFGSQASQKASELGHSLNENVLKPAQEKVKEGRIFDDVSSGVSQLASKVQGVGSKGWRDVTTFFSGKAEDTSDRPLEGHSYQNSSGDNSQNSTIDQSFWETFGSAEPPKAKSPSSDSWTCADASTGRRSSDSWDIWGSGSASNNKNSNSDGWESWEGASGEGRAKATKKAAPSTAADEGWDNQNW

T2 sequence (P07550 whole entry): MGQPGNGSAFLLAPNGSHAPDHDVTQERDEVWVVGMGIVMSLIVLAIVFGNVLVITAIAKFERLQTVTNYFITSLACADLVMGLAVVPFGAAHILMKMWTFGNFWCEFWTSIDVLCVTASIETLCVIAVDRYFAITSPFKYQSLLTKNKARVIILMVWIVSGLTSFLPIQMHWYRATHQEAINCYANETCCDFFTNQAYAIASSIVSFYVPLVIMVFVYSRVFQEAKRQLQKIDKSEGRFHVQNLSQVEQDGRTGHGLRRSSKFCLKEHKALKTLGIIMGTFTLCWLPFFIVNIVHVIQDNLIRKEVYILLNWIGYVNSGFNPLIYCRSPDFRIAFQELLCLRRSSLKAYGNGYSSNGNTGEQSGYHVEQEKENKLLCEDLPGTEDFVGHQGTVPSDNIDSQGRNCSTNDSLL
NAD-dependent protein deacylase sirtuin-5, mitochondrial, sequence (Q9NXA8 whole entry): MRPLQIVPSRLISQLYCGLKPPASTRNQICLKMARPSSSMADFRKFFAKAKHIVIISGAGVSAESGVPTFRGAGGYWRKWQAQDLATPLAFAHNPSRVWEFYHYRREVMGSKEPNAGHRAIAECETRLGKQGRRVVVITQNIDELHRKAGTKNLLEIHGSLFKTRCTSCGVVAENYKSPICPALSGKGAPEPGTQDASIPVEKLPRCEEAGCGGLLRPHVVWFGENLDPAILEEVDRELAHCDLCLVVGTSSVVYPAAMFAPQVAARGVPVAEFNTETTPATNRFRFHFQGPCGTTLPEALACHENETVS
Kallikrein-7, sequence (P49862 whole entry): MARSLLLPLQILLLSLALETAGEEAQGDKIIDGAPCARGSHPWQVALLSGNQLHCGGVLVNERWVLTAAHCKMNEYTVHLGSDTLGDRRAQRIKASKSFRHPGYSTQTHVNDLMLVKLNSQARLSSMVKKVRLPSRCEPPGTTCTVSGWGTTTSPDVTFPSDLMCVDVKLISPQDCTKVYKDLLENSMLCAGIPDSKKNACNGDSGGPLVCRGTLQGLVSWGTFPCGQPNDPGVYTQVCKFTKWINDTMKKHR

Q: With COc1ccc(C2CCN(c3ccnc4ccccc34)C2)cc1OC (centres undefined) as the compound, how does the IC50 [1] read?
A: 2 µM (active)

Q: For CC(C)CC#Cc1ccc2c(c1)O[C@@H](CN(C)Cc1ccc3c(c1)OCO3)[C@H](C)CN([C@H](C)CO)S2(=O)=O, which AC50 [2] is on record?
A: 12.6 µM (active)

Q: Which results are given for C[C@H]1CNC(=O)[C@@H](Cc2ccc(C(F)(F)F)cc2)CCn2nncc2COC1?
A: AC50 [3]: > 52 µM (inactive); AC50 [4]: 35.5 µM (active)

Q: Which AC50 [5] does the source give for Fc1ccc(-c2nc3ccc(Cl)cn3c2Cc2ccsc2)cc1 here?
A: 25.8 µM (active)

Q: What about the IC50 (Protein skinhead-1) of the same compound?
A: 70.3 µM (inactive)

Q: With COc1ccc(S(=O)(=O)N2CCN(CC(=O)NC3CC3)CC2)cc1 as the compound, how does the AC50 (A549) read?
A: 35.1 µM (active)

Q: For COc1cccc(CNC(=O)c2ccc3c(c2)N(C)CCS3)c1OC, which EC50 (Kallikrein-7) is on record?
A: > 69.5 µM (inactive)

Q: With CCCOC(=O)c1c(-c2ccc(OC)cc2)oc2ccc(-c3ccc(OC)nc3)cc12 as the compound, how does the EC50 [6] read?
A: > 29.9 µM (inactive)

Q: And the IC50 [7]?
A: > 29.9 µM (inactive)

Q: What does the source list for O=C(NNC(=S)NC(=O)c1cccs1)c1ccc(NC(=O)c2ccccc2)cc1?
A: IC50 [8]: 51.9 µM (inactive); EC50 [9]: 479 nM (active); EC50 (Streptococcus): 6.3 µM (active)

Q: Which AC50 [10] does the source give for CCOc1ccc(C)cc1S(=O)(=O)NCc1ccncc1 here?
A: 4.69 µM (active) and 8.19 µM (active)

Q: And the AC50 [11]?
A: > 70 µM (inactive)

Q: And the AC50 [12]?
A: > 70 µM (inactive)

Q: What does the source list for CC(=O)Nc1ccc(S(=O)(=O)N2CCCCC2c2cccnc2)cc1 (centres undefined)?
A: EC50 [13]: 262 nM (active) and 107 nM (active); EC50 [14]: 23.3 nM (active)

Q: Which EC50 [15] does the source give for Cc1oc(-c2ccc(Cl)cc2)nc1CN1CCCC(C(=O)NCc2ccco2)C1 (centres undefined) here?
A: > 120 µM (not active)

Q: And the EC50 [16]?
A: > 120 µM (not active)

Q: And the AC50 [17]?
A: 6.37 µM (active)

Q: And the AC50 [18]?
A: 1.3 µM (active)

Q: And the EC50 [19]?
A: > 120 µM (not active)

Q: With C=CCOc1ccc(/C=C/C(=O)Nc2ccc(C(=O)NC)cc2)cc1 as the compound, how does the IC50 [20] read?
A: 52.2 µM (inactive)

— ChEMBL document CHEMBL1201862, “PubChem BioAssay data set” (2004)
